Experimental data taken from paper PMC7913210 (Pharmaceutics, 2021).

Legend:
[1] = cited from earlier work
[2] = Parent-metabolite PK model (non-linear mixed-effect modeling) after SC LHA administration; type: in vivo, Sprague-Dawley rats
Procedure: In addition, a combined transit model with first-order absorption was evaluated to better describe absorption phase. In the transit model, the optimal number of transit compartments (NTR) and the mean transit time (MTT) were estimated. The transit model introduced three parameters—Ktr, NTR, and MTT. Two of these three parameters were estimated. The relationship of these parameters is shown in the following equation: MTT= (NTR+1)/Ktr The inter-individual variability (IIV) was assessed using an exponential variability model as following equation: Pi=Ptv ×exp (ETA) where Pi represents the value of the individual PK parameter, Ptv is a typical value for P, and ETA indicates an interindividual random effect with the mean of zero and variance of ω^2. Residual random variability (ε) was calculated using a proportional error model for the three types of observations. Optimal model selection was guided by changes in diagnostic values including twice the negative log like (−2LL), Akaike information Criterion (AIC), Baysian Information Criteria (BIC), visual inspection of various diagnostic plots (goodness of fit plot), and precision of parameter estimates. The visual predictive check (VPC) and boot strap analysis was conducted for non-parametric evaluation of the model. Graphical diagnostics including basic goodness-of-fit plot and other accessory plots were used for single run-based diagnostics during model development. For the final model, the robustness and predictive performance were evaluated using multiple run-based diagnostics such as bootstrapping. A bootstrap procedure was conducted with a total of 1000 bootstrap-resampled datasets from the original dataset. Bootstrap results of median and 95% confidence intervals (CIs, […]) were compared with final parameter estimates. The 95% confidence intervals of parameters obtained from this step were compared with final parameter estimates.

[3] = SC LHA, rats, model estimate (fixed effect)

Structure (SMILES)	potency as anti-arrhythmic agent relative to lidocaine [1]	CLm2/F, Apparent Metabolite clearance ([2]; SC LHA, rats, second metabolite (GX), model estimate)	Fm2, Fraction of the first metabolite converted to second metabolite ([2]; SC LHA, rats, MEGX to GX, model estimate)	CLm1/F, Apparent Metabolite (MEGX) clearance [2, 3]	MEGX converted into GX ([2]; model prediction, hyaluronic acid pre-incorporated lidocaine injected subcutaneously)	Vmax, Maximum rate of reaction ([2]; SC LHA, rats, Michaelis-Menten elimination of lidocaine, model estimate)	MTT, Mean Transit Time [2, 3]	Ntr, Number of transit compartments [2, 3]
Cc1cccc(C)c1NC(=O)CN [GX, glycylxylidide]	~10%	1.09 L/h	–	–	–	–	–	–
CCNCC(=O)Nc1c(C)cccc1C [MEGX, monoethylglycylxylidide]	approximately 80%	–	0.47	14.94 L/h	about 47%	–	–	–
CCN(CC)CC(=O)Nc1c(C)cccc1C [Lidocaine, reference compound]	–	–	–	–	–	423,962.94 nmol/h	0.64 h	4.97
